Data on 29 compounds can be found in ChEMBL document CHEMBL3124891, “Tetrahydroquinoline derivatives as potent and selective factor XIa inhibitors” (J Med Chem, 2014).

One may read the Ki as a dissociation constant, usually derived from enzyme kinetics or from competition with a known ligand.

Where only a bound is given, the exact number is not on record here.

For one assay, the target named is T1, Coagulation factor VII (Homo sapiens, UniProt P08709).
T1 sequence (P08709 whole entry): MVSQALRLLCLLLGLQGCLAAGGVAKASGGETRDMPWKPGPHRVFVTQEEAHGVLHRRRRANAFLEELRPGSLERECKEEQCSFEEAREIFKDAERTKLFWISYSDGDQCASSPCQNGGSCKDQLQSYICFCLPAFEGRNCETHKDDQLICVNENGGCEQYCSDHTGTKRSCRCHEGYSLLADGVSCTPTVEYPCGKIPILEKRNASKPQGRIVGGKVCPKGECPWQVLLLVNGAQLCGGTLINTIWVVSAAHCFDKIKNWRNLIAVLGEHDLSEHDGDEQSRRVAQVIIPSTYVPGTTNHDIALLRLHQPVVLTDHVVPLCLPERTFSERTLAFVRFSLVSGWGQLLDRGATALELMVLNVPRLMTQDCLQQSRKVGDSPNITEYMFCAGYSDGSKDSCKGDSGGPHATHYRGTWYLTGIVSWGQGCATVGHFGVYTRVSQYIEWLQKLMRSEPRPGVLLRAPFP
The experiment in a line: Binding affinity to human factor 7a assessed as release of p-nitroaniline after 10 to 120 mins by spectrophotometric analysis.

A further assay has as its target Coagulation factor X (Homo sapiens, UniProt P00742). Description: Binding affinity to human factor 10a assessed as release of p-nitroaniline after 10 to 120 mins by spectrophotometric analysis.
For another assay, the target named is Coagulation factor XI (Homo sapiens, UniProt P03951). Description: Binding affinity to human factor 11a assessed as release of p-nitroaniline after 10 to 120 mins by spectrophotometric analysis.
Chain of Coagulation factor XI (P03951 19-387 limits assumed): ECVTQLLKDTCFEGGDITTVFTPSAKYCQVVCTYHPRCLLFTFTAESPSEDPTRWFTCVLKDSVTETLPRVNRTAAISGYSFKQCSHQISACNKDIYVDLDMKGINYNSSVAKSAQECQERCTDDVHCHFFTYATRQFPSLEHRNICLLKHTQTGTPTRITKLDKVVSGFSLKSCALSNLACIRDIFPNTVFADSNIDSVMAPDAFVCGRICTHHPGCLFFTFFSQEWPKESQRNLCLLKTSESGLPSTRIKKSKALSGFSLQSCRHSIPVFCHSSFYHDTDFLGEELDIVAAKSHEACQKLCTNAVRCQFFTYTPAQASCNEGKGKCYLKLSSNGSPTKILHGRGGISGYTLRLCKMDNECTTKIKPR
Chain of Coagulation factor XI (P03951 388-625 limits assumed): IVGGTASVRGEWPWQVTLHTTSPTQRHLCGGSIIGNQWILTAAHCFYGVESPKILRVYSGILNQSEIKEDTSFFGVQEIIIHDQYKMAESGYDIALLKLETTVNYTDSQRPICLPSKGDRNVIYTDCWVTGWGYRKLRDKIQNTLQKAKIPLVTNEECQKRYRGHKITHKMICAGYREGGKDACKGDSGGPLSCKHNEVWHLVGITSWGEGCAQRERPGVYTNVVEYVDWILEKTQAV
A further assay has as its system Plasma. Description: Anticoagulant activity in human plasma assessed as concentration required to double activated partial thromboplastin time. In kind it is functional.

Chain of Coagulation factor X (P00742 41-179 limits assumed): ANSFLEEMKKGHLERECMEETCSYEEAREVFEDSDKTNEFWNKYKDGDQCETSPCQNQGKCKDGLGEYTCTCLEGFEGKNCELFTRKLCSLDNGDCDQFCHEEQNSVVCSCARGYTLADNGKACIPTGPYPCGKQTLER
Chain of Coagulation factor X (P00742 235-488 limits assumed): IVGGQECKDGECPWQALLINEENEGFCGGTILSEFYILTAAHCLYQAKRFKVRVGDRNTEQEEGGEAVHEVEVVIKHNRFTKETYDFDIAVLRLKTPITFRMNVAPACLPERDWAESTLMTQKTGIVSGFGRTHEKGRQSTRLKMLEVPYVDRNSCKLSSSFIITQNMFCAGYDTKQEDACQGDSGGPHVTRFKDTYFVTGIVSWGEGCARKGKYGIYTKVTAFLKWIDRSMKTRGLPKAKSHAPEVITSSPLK

As to `C[C@]1(c2ccccc2)C[C@@H](c2cccc(-c3ccc(NS(C)(=O)=O)cc3C(=O)O)c2)Nc2ccc(C(=N)N)cc21` (racemic), the Ki at Coagulation factor VII was 237 nM; on Coagulation factor X, above 15000 nM; at Coagulation factor XI it was 37 nM.

With `N=C(N)c1ccc2c(c1)[C@@H](c1ccccc1)C[C@@H](c1ccccc1-c1ccccc1C(=O)O)N2` (racemic), the Ki is 2200 nM at Coagulation factor VII, 1940 nM at Coagulation factor X and 110 nM on Coagulation factor XI.

As to `N=C(N)c1ccc2c(c1)[C@@H](c1ccccc1)C[C@@H](c1ccccc1-c1ccc(C(=O)O)cc1)N2` (racemic), the Ki on Coagulation factor XI amounted to 2400 nM.

`CC(C)CNC(=O)c1ccc(-c2cccc([C@@H]3C[C@H](c4ccccc4)c4cc(C(=N)N)ccc4N3)c2)c(C(=O)O)c1` (racemic): the Ki amounted to 25 nM on Coagulation factor VII, 24 nM at Coagulation factor X and 23 nM on Coagulation factor XI.

On to `C[C@]1(c2ccccc2)C[C@@H](c2cccc(-c3ccc(C(=O)O)cc3C(=O)O)c2)Nc2ccc(C(=N)N)cc21` (racemic), for which the values for the Ki at Coagulation factor VII, at Coagulation factor X and on Coagulation factor XI were 2600 nM, 9300 nM and 61 nM, respectively.

With `CC[C@]1(c2ccccc2)C[C@@H](c2cccc(-c3ccc(C(=O)O)cc3C(=O)O)c2)Nc2ccc(C(=N)N)cc21` (racemic), the Ki at Coagulation factor XI worked out at 830 nM.

As to `CCC[C@]1(c2ccccc2)C[C@@H](c2cccc(-c3ccc(C(=O)O)cc3C(=O)O)c2)Nc2ccc(C(=N)N)cc21` (racemic), on Coagulation factor XI, the Ki was determined as 1960 nM.

In the case of `C[C@]1(c2ccccc2)C[C@@H](c2cccc(-c3ccc(C(N)=O)cc3C(=O)O)c2)Nc2ccc(C(=N)N)cc21` (racemic), the figures for the Ki at Coagulation factor VII, on Coagulation factor X and on Coagulation factor XI were 280 nM, 3000 nM and 1.5 nM, respectively. The EC in the assay on Plasma stood at 8.6 µM.

As for `CNC(=O)Nc1ccc(-c2cccc([C@@H]3C[C@](C)(c4ccccc4)c4cc(C(=N)N)ccc4N3)c2)c(C(=O)O)c1` (racemic), the Ki on Coagulation factor VII was found to be 451 nM; at Coagulation factor X, 1140 nM; at Coagulation factor XI, 15 nM.

For the compound `C[C@]1(c2ccccc2)C[C@@H](c2cccc(-c3ccc(C#N)cc3C(=O)O)c2)Nc2ccc(C(=N)N)cc21` (racemic), the Ki on Coagulation factor VII came to 867 nM; at Coagulation factor X, 2060 nM; on Coagulation factor XI, 48 nM.

In the case of `C[C@]1(c2ccccc2)C[C@@H](c2cccc(-c3ccc(N)cc3C(=O)O)c2)Nc2ccc(C(=N)N)cc21` (racemic), the figures for the Ki on Coagulation factor VII, on Coagulation factor X and on Coagulation factor XI were 275 nM, 3980 nM and 64 nM, respectively.

In the case of `COC(=O)c1ccc(-c2cccc([C@@H]3C[C@](C)(c4ccccc4)c4cc(C(=N)N)ccc4N3)c2)c(C(=O)O)c1` (racemic), the Ki on Coagulation factor VII was 442 nM; on Coagulation factor X, 606 nM; at Coagulation factor XI, 79 nM.

In the case of `C[C@]1(c2ccccc2)C[C@@H](c2cccc(-c3ccccc3C(=O)O)c2)Nc2ccc(C(=N)N)cc21` (racemic), the results for the Ki on Coagulation factor VII, at Coagulation factor X and at Coagulation factor XI were 3060 nM, 6700 nM and 110 nM, respectively.

For `CC(=O)Nc1ccc(-c2cccc([C@@H]3C[C@](C)(c4ccccc4)c4cc(C(=N)N)ccc4N3)c2)c(C(=O)O)c1` (racemic), the Ki on Coagulation factor VII was 705 nM; at Coagulation factor X, 5810 nM; on Coagulation factor XI, 110 nM.

Consider `CNC(=O)c1ccc(-c2cccc([C@@H]3C[C@](C)(c4ccccc4)c4cc(C(=N)N)ccc4N3)c2)c(C(=O)O)c1` (racemic), for which the values for the Ki at Coagulation factor VII, at Coagulation factor X and on Coagulation factor XI were 1960 nM, 4100 nM and 154 nM, respectively.

For the compound `CC(C)NC(=O)c1ccc(-c2cccc([C@@H]3C[C@](C)(c4ccccc4)c4cc(C(=N)N)ccc4N3)c2)c(C(=O)O)c1` (racemic), the Ki at Coagulation factor VII is 1770 nM; at Coagulation factor X, 1310 nM; at Coagulation factor XI, 207 nM.

Take `CN(C)Cc1ccc(-c2cccc([C@@H]3C[C@](C)(c4ccccc4)c4cc(C(=N)N)ccc4N3)c2)c(C(=O)O)c1` (racemic): the Ki at Coagulation factor VII is 610 nM; on Coagulation factor X, above 15000 nM; at Coagulation factor XI it was 466 nM.

On to `CC(C)(C)NC(=O)c1ccc(-c2cccc([C@@H]3C[C@](C)(c4ccccc4)c4cc(C(=N)N)ccc4N3)c2)c(C(=O)O)c1` (racemic), for which the results for the Ki on Coagulation factor VII, on Coagulation factor X and at Coagulation factor XI were 1290 nM, 6400 nM and 540 nM, respectively.

As for `C[C@]1(c2ccccc2)C[C@H](c2cccc(-c3ccc(C(N)=O)cc3C(=O)O)c2)Nc2ccc(C(=N)N)cc21` (racemic), the inhibition constant (Ki) is 16300 nM at Coagulation factor VII, 8350 nM on Coagulation factor X and 26 nM on Coagulation factor XI.

As to `N=C(N)c1ccc2c(c1)[C@@H](c1ccccc1)C[C@@H](c1cc(N)cc(-c3ccccc3C(=O)O)c1)N2` (racemic), the Ki at Coagulation factor VII came to 41 nM; on Coagulation factor X it was 57 nM; at Coagulation factor XI it was 7.6 nM.

`C[C@]1(c2ccccc2)C[C@@H](c2cc(N)cc(-c3ccc(C(N)=O)cc3C(=O)O)c2)Nc2ccc(C(=N)N)cc21` (racemic): the inhibition constant Ki on Coagulation factor VII came to 56 nM; at Coagulation factor X, 2250 nM; on Coagulation factor XI, 0.64 nM. The EC with Plasma was determined as 1.2 µM.

For the compound `CC(=O)Nc1cc(-c2ccc(C(N)=O)cc2C(=O)O)cc([C@@H]2C[C@](C)(c3ccccc3)c3cc(C(=N)N)ccc3N2)c1` (racemic), the Ki came to 230 nM at Coagulation factor VII, 1810 nM at Coagulation factor X and 1 nM on Coagulation factor XI. The EC in the assay with Plasma was determined as 2.1 µM.

For `CCC(=O)Nc1cc(-c2ccc(C(N)=O)cc2C(=O)O)cc([C@@H]2C[C@](C)(c3ccccc3)c3cc(C(=N)N)ccc3N2)c1` (racemic), the Ki at Coagulation factor VII turned out to be 450 nM; at Coagulation factor X, 1480 nM; at Coagulation factor XI, 0.69 nM. Also, the EC in the assay on Plasma turned out to be 3.4 µM.

In the case of `CCCC(=O)Nc1cc(-c2ccc(C(N)=O)cc2C(=O)O)cc([C@@H]2C[C@](C)(c3ccccc3)c3cc(C(=N)N)ccc3N2)c1` (racemic), the Ki on Coagulation factor VII turned out to be 520 nM; at Coagulation factor X it was 641 nM; at Coagulation factor XI, 0.3 nM. Also, the EC in the assay with Plasma came to 4.1 µM.

Take `C[C@]1(c2ccccc2)C[C@@H](c2cc(NC(=O)C3CC3)cc(-c3ccc(C(N)=O)cc3C(=O)O)c2)Nc2ccc(C(=N)N)cc21` (racemic): the values for the Ki on Coagulation factor VII, at Coagulation factor X and on Coagulation factor XI were 474 nM, 880 nM and 0.72 nM, respectively. Further, the EC in the assay on Plasma came out at 4.5 µM.

`CC(C)CC(=O)Nc1cc(-c2ccc(C(N)=O)cc2C(=O)O)cc([C@@H]2C[C@](C)(c3ccccc3)c3cc(C(=N)N)ccc3N2)c1` (racemic): the figures for the Ki at Coagulation factor VII, at Coagulation factor X and at Coagulation factor XI were 1010 nM, 784 nM and 0.59 nM, respectively. Moreover, the EC in the assay on Plasma is 6.1 µM.

Regarding `CC1(c2ccccc2)CC(c2cccc(-c3ccc(C(N)=O)cc3C(=O)O)c2)Nc2ccc(C(=N)N)cc21` (single isomer, unassigned; (+)), the figures for the Ki on Coagulation factor VII, at Coagulation factor X and at Coagulation factor XI were 86 nM, 2330 nM and 0.39 nM, respectively.

Turning to `CC(C)CC(=O)Nc1cc(-c2ccc(C(N)=O)cc2C(=O)O)cc(C2CC(C)(c3ccccc3)c3cc(C(=N)N)ccc3N2)c1` (single isomer, unassigned; enantiomer 1), the figures for the Ki on Coagulation factor VII, at Coagulation factor X and at Coagulation factor XI were above 10900 nM, 5670 nM and 230 nM, respectively.

Take `CC1(c2ccccc2)CC(c2cccc(-c3ccc(C(N)=O)cc3C(=O)O)c2)Nc2ccc(C(=N)N)cc21` (single isomer, unassigned; enantiomer 2): the Ki was above 15000 nM at Coagulation factor VII, above 15000 nM at Coagulation factor X and 335 nM on Coagulation factor XI.
